# Test results: patent publication US20150342190A1, “METHODS FOR LEVERAGING HORMESIS IN PLANT BREEDING AND PLANTS WITH ENHANCED HORMESIS EFFECTS” (PIONEER HI BRED INTERNATIONAL INC, priority 2014, published 2015)
# Like-named read-outs stand apart in the source and are kept apart here.
# How the values were obtained:
# Assay type in all cases: in vivo
# [1] = test system: inbred lines without the glyphosate tolerance trait (PH1BVW2, PH1PMB1, and PHSZB1); assay: Glyphosate efficacy check on non-tolerant maize inbreds (Example 5); conditions: both glyphosate treatments (1× and 2× of the recommended dosage), spray
# Description: (§1) Seeds from four glyphosate tolerant maize inbred lines (PH1BVW2, PH1PMB1, PHSZB1 and PH19081) were washed in 0.615% NaClO solution for 5 minutes and rinsed with deionized water. They were germinated for one week and then transferred into individual 10″ Deepot tubes (1 seedling/tube), either with foam plugs to suspend the plants in the tubes (Experiments 1 &2) or filled with Turface (Experiments 3 & 4). These tubes were placed into hydroponic growing tanks (100 tubes/tank) with a modified Hoagland's media. At the end of the 2nd week after planting, plants from selected tanks were sprayed with glyphosate solutions equivalent to 1× or 2× of the recommended dosage (1× dosage: 1 quart of liquid Round-Up WeatherMax® per acre, or 21.75 ul/ft2). Separately, three inbred lines without the glyphosate tolerance trait (PH1BVW2, PH1PMB1, and PHSZB1) were treated with the same dosages of glyphosate to confirm the efficacy of the herbicide. The inbred lines without the glyphosate tolerance trait were killed by both glyphosate treatments, as expected. Four weeks after germination, plants were harvested and shoot fresh weight was recorded.
# [2] = test system: glyphosate tolerant maize inbred line PH19081; assay: Glyphosate treatment of hydroponically grown maize inbreds, shoot fresh weight (Example 5); conditions: seedling fresh weight
# Description: as §1
# [3] = test system: glyphosate tolerant maize inbred line PH1BVW2; assay: as above; conditions: seedling fresh weight
# Description: as §1
# [4] = test system: soybean line 93Y82BC3 (RR + Als1 + Als2); assay: 2014 field hormesis trial (Example 4)
# Description: (§2) The field trial was conducted as a 7×4 factorial experiment (7 herbicide regimes×4 genotypes) in a split block design with main blocks as herbicide treatments. The trial was conducted at 3 different environments (separate field locations) in Iowa during the summer of 2014. Herbicide control treatment #1 (no sulfonylurea) was replicated 12 times within each of the 3 environments (36 reps total). Herbicide treatments 2 through 7 (Table 7) were replicated 6 times at each of the 3 environments (18 reps total). The additional replication of control treatment #1 was done to increase precision of the treatment mean to which all other treatments (#2 through 7) would be compared.
# (§3) It is important to note that both tribenuron and rimsulfuron are more toxic to wild type soybeans than other SU's that could also be tested. But treatment with these specific SU's and application rates was intended to push the limits of SU tolerance so that any response differences between lines could be exposed. The 4 genotypes (Table 6) were randomized within each of the main blocks to facilitate post-emergence application of the various herbicide treatments (Table 7). Each experimental unit was a 2-row soybean plot 15 feet long with 30 inch row spacing and a planting density of 8 seeds per foot of row. Planting was done in mid-May and harvest was done in early October at all 3 environments in 2014.
# (§4) Several weeks after planting, the entire field was sprayed post-emergence at the V2 (2-leaf) stage with Roundup PowerMax® at 44 oz/acre (30 oz/acre ai glyphosate) with the addition of ammonium sulfate at a rate of 8 lb per 100 gallons as according to label. Several days later at the V3 (3-leaf) stage, herbicide treatments 2 through 7 (Table 7) were applied according to label directions including the addition of ammonium sulfate at a rate of 8 lb per 100 gallons of spray solution. Randomly embedded control plots of a given soybean genotype facilitated side-by-side visual estimates of herbicide injury. Plots were given visual injury ratings at 14 days after herbicide treatment (14 DAT). Visual injury estimates were assigned to reflect the crop response (a combination of reduced vigor and/or chlorosis) of sprayed rows in relation to the randomly embedded control plots. Injury scores were based on a 0-100% scale, with 0 indicating no crop response and 100 indicating all plants killed.
# (§5) At maturity, the seed from each plot was harvested with weight and moisture recorded. Weights were then adjusted to 13% moisture content and reported in units of bushels per acre (bu/a). Yields were also converted to % of control on a “per line” and “per environment” basis. For example, the average yield of SU-treated 93Y92BC3 plots were compared to the average yield of 93Y92BC3 control plots within a given environment and then averaged across environments.
# [5] = test system: soybean line 93Y92BC3 (RR + Als1 + Als2); assay: 2014 field hormesis trial (Example 4)
# Description: as §2, §3, §4, §5
# [6] = test system: soybean line 93M94 (RR + Als1)
# Description: as §2, §3, §4, §5
# [7] = test system: soybean line 94Y02 (RR + Als1)
# Description: as §2, §3, §4, §5
# [8] = test system: soybean line BC44883270 (ALS1 + ALS2); assay: Field yield trial with herbicide treatments (Example 2); conditions: full herbicide concentration (Tribenuron 1.0X) at V3
# Description: (§6) Table 2 describes the soy lines used and whether ALS1, ALS2, or both herbicide resistant genes were present in each.
# (§7) Each of the lines in Table 2 was grown at a density of 150,000 seeds/acre (˜8 seeds per foot of row) in two 30 inch rows. Each line was divided into four groups, and each group of each line was subjected to one of the four herbicide treatments listed in Table 3.
# (§8) Group 1 of each line was the control group that received no herbicide treatment. Groups 2, 3, and 4 of each line were treated with different concentrations of herbicide corresponding to approximately ¼ strength, ½ strength, and full strength (needed for weed control) respectively of the recommended concentrations of the herbicide DuPont™ Express® w/TotalSol®, which includes Tribenuron, a sulfonylurea herbicide. The herbicide treatment spray solution was prepared according to the label instructions with a non-ionic surfactant and an adjuvant (ammonium sulfate). The herbicide was applied to Groups 2, 3, and 4 during the V3 growth phase, the plants were grown to maturity, and yield measurements were made. Each genotype×herbicide treatment group was replicated six times.
# [9] = test system: soybean line BC44883336 (ALS1 + ALS2); assay: as above; conditions: full herbicide concentration (Tribenuron 1.0X) at V3
# Description: as §6, §7, §8
# [10] = test system: soybean line BC44883300 (ALS2); assay: as above; conditions: full herbicide concentration (Tribenuron 1.0X) at V3
# Description: as §6, §7, §8
# [11] = test system: soybean line BC44883269 (ALS2); assay: as above; conditions: full herbicide concentration (Tribenuron 1.0X) at V3
# Description: as §6, §7, §8
# [12] = test system: soybean lines of Table 2; assay: Field yield trial with herbicide treatments (Example 2), all lines; conditions: 1/4 concentration herbicide application (Tribenuron 0.25X) at V3
# Description: as §6, §7, §8
# [13] = 0.5x rate at V3, 3 environments
# [14] = herbicide treatments 2 and 3 (tribenuron 0.5x and 1x), 14 DAT
structure (smiles),measurement,setting,value
O=C(O)CNCP(=O)(O)O [glyphosate],efficacy of the herbicide on non-tolerant lines,[1],killed
same,hormesis effect upon application of herbicide,[2],positive hormesis effect
same,hormesis effect upon application of herbicide,[3],positive hormesis effect
CCS(=O)(=O)c1cccnc1S(=O)(=O)NC(=O)Nc1nc(OC)cc(OC)n1 [rimsulfuron],Yield as % of control,[4]; 0.5x rate at V3,99%
same,Yield effect,[4]; 0.5x rate at V3,neutral
same,Yield (bu/a),[4]; [13],60.1 bu/a
same,Yield as % of control,[4]; 1x rate at V3,93%
same,Yield effect,[4]; 1x rate at V3,negative
same,Yield (bu/a),"[4]; 1x rate at V3, 3 environments",56.2 bu/a
same,Yield as % of control,[4]; 2x rate at V3,81%
same,Yield effect,[4]; 2x rate at V3,negative
same,Yield (bu/a),"[4]; 2x rate at V3, 3 environments",48.7 bu/a
same,Yield as % of control,[5]; 0.5x rate at V3,107%
same,Yield effect,[5]; 0.5x rate at V3,Positive
same,Yield (bu/a),[5]; [13],59.8 bu/a
same,Yield as % of control,[5]; 1x rate at V3,108%
same,Yield effect,[5]; 1x rate at V3,Positive
same,Yield (bu/a),"[5]; 1x rate at V3, 3 environments",60.5 bu/a
same,Yield as % of control,[5]; 2x rate at V3,89%
same,Yield effect,[5]; 2x rate at V3,negative
same,Yield (bu/a),"[5]; 2x rate at V3, 3 environments",49.9 bu/a
same,Yield as % of control,[6]; 0.5x rate at V3,76%
same,Yield effect,[6]; 0.5x rate at V3,negative
same,Yield (bu/a),[6]; [13],36.7 bu/a
same,Yield as % of control,[6]; 1x rate at V3,51%
same,Yield effect,[6]; 1x rate at V3,negative
same,Yield (bu/a),"[6]; 1x rate at V3, 3 environments",24.7 bu/a
same,Yield as % of control,[6]; 2x rate at V3,41%
same,Yield effect,[6]; 2x rate at V3,negative
same,Yield (bu/a),"[6]; 2x rate at V3, 3 environments",19.6 bu/a
same,Yield as % of control,[7]; 0.5x rate at V3,54%
same,Yield effect,[7]; 0.5x rate at V3,negative
same,Yield (bu/a),[7]; [13],31.7 bu/a
same,Yield as % of control,[7]; 1x rate at V3,33%
same,Yield effect,[7]; 1x rate at V3,negative
same,Yield (bu/a),"[7]; 1x rate at V3, 3 environments",19.5 bu/a
same,Yield as % of control,[7]; 2x rate at V3,21%
same,Yield effect,[7]; 2x rate at V3,negative
same,Yield (bu/a),"[7]; 2x rate at V3, 3 environments",12.2 bu/a
COc1nc(C)nc(N(C)C(=O)NS(=O)(=O)c2ccccc2C(=O)O)n1 [tribenuron],yield improvement over the control,[8],about 4.5%
same,yield improvement over the control,[9],~13%
same,yield decrease,[10],~19%
same,yield decrease,[11],about 32%
same,Yield as % of control,[4]; 0.5x rate at V3,101%
same,Yield effect,[4]; 0.5x rate at V3,neutral
same,Yield (bu/a),[4]; [13],61.1 bu/a
same,Visual injury 14 DAT,"[4]; 0.5x rate at V3, 14 DAT",3%
same,Yield as % of control,[4]; 1x rate at V3,101%
same,Yield effect,[4]; 1x rate at V3,neutral
same,Yield (bu/a),"[4]; 1x rate at V3, 3 environments",61.3 bu/a
same,Visual injury 14 DAT,"[4]; 1x rate at V3, 14 DAT",6%
same,Yield as % of control,[4]; 2x rate at V3,102%
same,Yield effect,[4]; 2x rate at V3,neutral
same,Yield (bu/a),"[4]; 2x rate at V3, 3 environments",61.4 bu/a
same,Visual injury 14 DAT,"[4]; 2x rate at V3, 14 DAT",16%
same,average visual injury,[4]; [14],≤ 6%
same,Yield as % of control,[5]; 0.5x rate at V3,106%
same,Yield effect,[5]; 0.5x rate at V3,Positive
same,Yield (bu/a),[5]; [13],59.4 bu/a
same,Visual injury 14 DAT,"[5]; 0.5x rate at V3, 14 DAT",2%
same,Yield as % of control,[5]; 1x rate at V3,104%
same,Yield effect,[5]; 1x rate at V3,Positive
same,Yield (bu/a),"[5]; 1x rate at V3, 3 environments",58.0 bu/a
same,Visual injury 14 DAT,"[5]; 1x rate at V3, 14 DAT",5%
same,Yield as % of control,[5]; 2x rate at V3,108%
same,Yield effect,[5]; 2x rate at V3,Positive
same,Yield (bu/a),"[5]; 2x rate at V3, 3 environments",60.0 bu/a
same,Visual injury 14 DAT,"[5]; 2x rate at V3, 14 DAT",14%
same,average visual injury,[5]; [14],≤ 6%
same,Yield as % of control,[6]; 0.5x rate at V3,98%
same,Yield effect,[6]; 0.5x rate at V3,neutral
same,Yield (bu/a),[6]; [13],47.5 bu/a
same,Visual injury 14 DAT,"[6]; 0.5x rate at V3, 14 DAT",10%
same,Yield as % of control,[6]; 1x rate at V3,101%
same,Yield effect,[6]; 1x rate at V3,neutral
same,Yield (bu/a),"[6]; 1x rate at V3, 3 environments",48.9 bu/a
same,Visual injury 14 DAT,"[6]; 1x rate at V3, 14 DAT",18%
same,Yield as % of control,[6]; 2x rate at V3,87%
same,Yield effect,[6]; 2x rate at V3,negative
same,Yield (bu/a),"[6]; 2x rate at V3, 3 environments",41.9 bu/a
same,Visual injury 14 DAT,"[6]; 2x rate at V3, 14 DAT",39%
same,Yield as % of control,[7]; 0.5x rate at V3,99%
same,Yield effect,[7]; 0.5x rate at V3,neutral
same,Yield (bu/a),[7]; [13],58.8 bu/a
same,Visual injury 14 DAT,"[7]; 0.5x rate at V3, 14 DAT",9%
same,Yield as % of control,[7]; 1x rate at V3,98%
same,Yield effect,[7]; 1x rate at V3,neutral
same,Yield (bu/a),"[7]; 1x rate at V3, 3 environments",58.2 bu/a
same,Visual injury 14 DAT,"[7]; 1x rate at V3, 14 DAT",19%
same,Yield as % of control,[7]; 2x rate at V3,82%
same,Yield effect,[7]; 2x rate at V3,negative
same,Yield (bu/a),"[7]; 2x rate at V3, 3 environments",48.6 bu/a
same,Visual injury 14 DAT,"[7]; 2x rate at V3, 14 DAT",39%
same,yield relative to the control (hormesis effect),[12],relative yield increase
